Measurements published in PMC10762068, “Selective blockade of Cav1.2 (α1C) versus Cav1.3 (α1D) L-type calcium channels by the black mamba toxin calciseptine” (Nature Communications, 2024).
Where two headings read alike, the source gives them in different places. Positions of bridges follow the written chain, without caps; N, C: chain ends. No end group written: not given here.

Assays:
[1] = system: Cav1.2 (ICav1.2) in isolated adult mouse ventricular myocytes; type: cell-based
[2] = system: SAN myocytes from Wild-Type mice; test: Spontaneous action potentials, perforated patch-clamp, SAN pacemaker myocytes; type: cell-based, mouse; conditions: for action potential duration APD30: 30% repolarization; for action potential duration APD30 / action potential duration APD50 / action potential duration APD70 / action potential duration APD90 / slope of linear part of diastolic depolarization (SLDD) / slope of exponential part of diastolic depolarization (SEDD) / action potential amplitude (APA) / action potential rate: mean ± SEM; for action potential duration APD50: 50% repolarization; for action potential duration APD70: 70% repolarization; for action potential duration APD90: 90% repolarization
Method: Hearts from Wild-Type and Cav1.3^−/− mice were removed under general anesthesia consisting of 0.01 mg/g xylazine (2% Rompun; Bayer AG) and 0.1 mg/g ketamine (Imalgène;Merial) and immersed in a pre-warmed (36 °C) Tyrode solution containing (mM): 140 NaCl, 5.4 KCl, 1 MgCl2, 1.8 CaCl2, 5.5 D-glucose, and 5 Hepes (adjusted to pH 7.4 with NaOH). […] SAN tissue was excised and transferred into a low-Ca^2+ solution containing (mM): 140 NaCl, 5.4 KCl, 0.5 MgCl2, 0.2 CaCl2, 1.2 KH2PO4, 50 taurine, 5.5 D-glucose, 1 mg/mL BSA, and 5 Hepes–NaOH (adjusted to pH 6.9 with NaOH) for 5 min. Then, enzymatic digestion was carried out for 20-25 min at 36 °C in the low-Ca^2+ solution containing LiberaseTH Research Grade (0.15 mg/mL; Roche, Mannheim, Germany) and elastase (0.5 mg/mL; Worthington, Lakewood, NJ, USA). Digestion was stopped by washing the SAN in a “Kraftbrühe” (KB) medium containing (mM) 100 K-glutamate, 10 K-aspartate, 25 KCl, 10 KH2PO4, 2 MgSO4, 20 taurine, 5 creatine, 0.5 EGTA, 20 D-glucose, 5 Hepes, and 1 mg/mL BSA (adjusted to pH 7.2 with KOH). Single SAN cells were then dissociated from the SAN tissue by manual agitation using a flame-forged Pasteur’s pipette. To recover the automaticity of the SAN cells, Ca^2+ was gradually reintroduced in the cell’s storage solution to a final concentration of 1.8 mM. SAN cells were then left to rest for 1 h before recordings.
For patch-clamp recordings of SAN myocytes, cells were harvested in custom-made chambers with glass bottoms for cell attachment. Cells were then super-fused with Tyrode’s solution warmed at 36 °C before recording. Action potentials and ionic currents were recorded using an Axon multi-clamp patch-clamp 700B amplifier. Voltage-gated L-type Ca^2+ currents (ICaL) were recorded using standard whole cell patch-clamp configuration. For recording ICaL, we used an extracellular recording solution contained (mM): 135 tetraethylammonium chloride (TEA-Cl), 10 4-aminopyridine (4-AP), 1 MgCl2, 0.03 tetrodotoxin (TTX), 1 g/L Glucose, 2 CaCl2, 10 Hepes, (adjusted to pH = 7.2 with TEAOH). […] Pacemaker activity was recorded by the perforated patch-clamp technique using escin (40 µg/ml). For recording cell automaticity glass pipettes were filled with the intracellular solution contained (mM): 80 K-Aspartate, 50 KCl, 1 MgCl2, 5 HEPES, 2 CaCl2, 5 EGTA, 3 ATP-Na+ salt; pH was adjusted to 7.2 with KOH. Escin was dissolved in sterile H2O and added to the intracellular solution right before each experiment.
We used an extracellular recording solution (Tyrode’s based) contained (mM): 140 NaCl, 5.4 KCl, 1 MgCl2, 1.8 CaCl2, 5 HEPES, 5.5 D-Glucose; pH was set to 7.4 with NaOH. AP parameters have been calculated as reported in Baudot et al.[10]. Data were analyzed using pCLAMP9 (Molecular Devices) and GraphPad Prism (GraphPad) software.
In all experiments of cellular electrophysiology, we employed synthetized analog of Cas, commercially available at Latoxan (ID: L8109). The native peptide was purified from the venom of Dendroaspis polylepis purchased from Latoxan, as previoulsly described. The pure peptide was obtained after gel filtration, cation exchange and C18 reversed phase chromatography. Its measured molecular mass (7036.26 Da average) was in accordance with the mass calculated from sequence data (7036.22 Da).

[3] = Cas 300 nM alone (n=9/N=4) or + Nife 3 µM (n=8/N=4)
[4] = Cas 1 µM alone (n=12/N=3) or + Nife 3 µM (n=9/N=3)

## RICYIHKASLPRATKTCVENTCYKMFIRTQREYISERGCGCPTAMWPYQTECCKGDRCNK (disulfide 3-22, 17-39, 41-52, 53-58 (inferred)) [Cas, calciseptine]
[1]; Cas 100 nM alone or + Nife 3 µM, +10 mV, Ctrl -9.81±1.32, n=9
  L-type Ca2+ current density: -6.14±1.02 pA/pF
[1]; Cas 100 nM alone or + Nife 3 µM, +20 mV, Ctrl -8.04±1.33, n=9
  L-type Ca2+ current density: -5.17±0.93 pA/pF
[1]; Cas 100 nM alone or + Nife 3 µM, +40 mV, Ctrl -3.68±0.68, n=9
  L-type Ca2+ current density: -2.24±0.46 pA/pF
[1]; Cas 100 nM alone or + Nife 3 µM, -10 mV, Ctrl -5.27±0.86, n=9
  L-type Ca2+ current density: -3.45±0.54 pA/pF
[1]; Cas 100 nM alone or + Nife 3 µM, -20 mV, Ctrl -1.26±0.27, n=9
  L-type Ca2+ current density: -1.21±0.20 pA/pF
[1]; Cas 100 nM, 300 nM, 1 µM, voltages −25 mV to +40 mV, holding −55 mV
  reduction of ICav1.2: dose-dependently reduced
[1]; Cas 300 nM alone or + Nife 3 µM, 0 mV, Ctrl -10.51±1.51, n=7
  L-type Ca2+ current density: -3.07±0.59 pA/pF
[1]; Cas 300 nM alone or + Nife 3 µM, +10 mV, Ctrl -10.15±1.38, n=7
  L-type Ca2+ current density: -3.66±0.55 pA/pF
[1]; Cas 300 nM alone or + Nife 3 µM, +20 mV, Ctrl -8.09±1.11, n=7
  L-type Ca2+ current density: -3.32±0.45 pA/pF
[1]; Cas 300 nM alone or + Nife 3 µM, +40 mV, Ctrl -3.36±0.49, n=7
  L-type Ca2+ current density: -1.58±0.23 pA/pF
[1]; Cas 300 nM alone or + Nife 3 µM, -10 mV, Ctrl -6.58±1.29, n=7
  L-type Ca2+ current density: -1.63±0.37 pA/pF
[1]; Cas 300 nM alone or + Nife 3 µM, -20 mV, Ctrl -2.02±0.86, n=7
  L-type Ca2+ current density: -0.52±0.07 pA/pF
[1]; Cas 1 µM alone or + Nife 3 µM, 0 mV, Ctrl -9.85±1.04, n=6
  L-type Ca2+ current density: -2.28±0.33 pA/pF
[1]; Cas 1 µM alone or + Nife 3 µM, +10 mV, Ctrl -8.83±1,09, n=6
  L-type Ca2+ current density: -3.38±0.15 pA/pF
[1]; Cas 1 µM alone or + Nife 3 µM, +20 mV, Ctrl -6.41±0.90, n=6
  L-type Ca2+ current density: -3.38±0.12 pA/pF
[1]; Cas 1 µM alone or + Nife 3 µM, +40 mV, Ctrl -2.75±0.60, n=6
  L-type Ca2+ current density: -1.35±0.11 pA/pF
[1]; Cas 1 µM alone or + Nife 3 µM, -10 mV, Ctrl -7.71±0.98, n=6
  L-type Ca2+ current density: -0.87±0.23 pA/pF
[1]; Cas 1 µM alone or + Nife 3 µM, -20 mV, Ctrl -3.53±0.98, n=6
  L-type Ca2+ current density: -0.34±0.07 pA/pF
[2]; Cas 300 nM
  effect on AP duration: did not affect AP duration
[2]; [3]
  action potential duration APD30: 28 ± 2 ms
  action potential duration APD50: 46 ± 4 ms
  action potential duration APD70: 66 ± 6 ms
  action potential duration APD90: 98 ± 8 ms
[2]; Cas 300 nM alone (n=9/N=4) or + Nife 3 µM (n=8/N=4), Ctrl 0.06 ± 0.01
  slope of linear part of diastolic depolarization (SLDD): ^$0.05 ± 0.01^p=0.0128 mV/ms
[2]; Cas 300 nM alone (n=9/N=4) or + Nife 3 µM (n=8/N=4), Ctrl 0.51 ± 0.09
  slope of exponential part of diastolic depolarization (SEDD): ^$0.40 ± 0.04^p=0.0078 mV/ms
[2]; Cas 300 nM alone (n=9/N=4) or + Nife 3 µM (n=8/N=4), Ctrl 83 ± 2
  action potential amplitude (APA): 75 ± 3 mV
[2]; Cas 300 nM alone (n=9/N=4) or + Nife 3 µM (n=8/N=4), Ctrl 200 ± 21
  action potential rate: ^$194 ± 19^p=0.0004 bpm
[2]; Cas 300 nM and 1 µM
  effect on AP amplitude: reduced AP amplitude
  effect on AP firing rate: did not affect AP firing rate
[2]; Cas 300 nM or 1 µM
  effect on maximum diastolic potential, threshold potential and upstroke velocity: did not observe statistically significant differences
  effect on slopes of linear and exponential diastolic depolarization: did not change
[2]; Cas 1 µM
  effect on AP duration at 30% and 50% of repolarization: had statistically significant effect
[2]; [4]
  action potential duration APD30: 25 ± 2 ms
  action potential duration APD50: 43 ± 3 ms
  action potential duration APD70: 61 ± 3 ms
  action potential duration APD90: 87 ± 4 ms
[2]; Cas 1 µM alone (n=12/N=3) or + Nife 3 µM (n=10/N=3), Ctrl 0.07 ± 0.01
  slope of linear part of diastolic depolarization (SLDD): ^$0.06 ± 0.01^p=0.0187 mV/ms
[2]; Cas 1 µM alone (n=12/N=3) or + Nife 3 µM (n=10/N=3), Ctrl 0.48 ± 0.06
  slope of exponential part of diastolic depolarization (SEDD): ^$0.50 ± 0.06^p=0.0002 mV/ms
[2]; Cas 1 µM alone (n=12/N=3) or + Nife 3 µM (n=10/N=3), Ctrl 91 ± 2
  action potential amplitude (APA): 85 ± 3 mV
[2]; Cas 1 µM alone (n=12/N=3) or + Nife 3 µM (n=10/N=3), Ctrl 218 ± 15
  action potential rate: ^$213 ± 15^p<0.0001 bpm
